From patent publication US20090156577A1, “7-AMINO ALKYLIDENYL-HETEROCYCLIC QUINOLONES AND NAPHTHYRIDONES” (priority 2004, published 2009)
≈ marks a conversion by molar mass, not a printed value. Structures can show the parent of a compound that is named as a salt. Where two headings read alike, the source gives them in different places.

Test system: pathogenic bacteria
Experiment: MIC by microdilution broth method (NCCLS M7-A4), in vitro antibacterial activity
Format: cell-based
Summary of the method: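 MIC read after 35 °C incubation for 16–20 h relative to drug-free growth wells. Cation-adjusted Mueller-Hinton broth with two-fold compound dilutions, organisms at roughly 5×10^4 CFU/well final. Method follows NCCLS document M7-A4.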

[1] = Staphylococcus aureus, Organism A: Staphylococcus aureus OC4172, read-out: MIC
[2] = Streptococcus pneumoniae, ATCC49619, Organism E: Streptococcus pneumoniae ATCC 49619, read-out: MIC
[3] = Streptococcus pneumoniae, Organism B: fluoroquinolone-resistant clinical isolate of Streptococcus pneumoniae (QRDR amino acid substitutions)
[4] = Streptococcus pneumoniae, Organism C: fluoroquinolone-resistant clinical isolate of Streptococcus pneumoniae (QRDR amino acid substitutions)
[5] = Streptococcus pneumoniae, Organism D: fluoroquinolone-resistant clinical isolate of Streptococcus pneumoniae (QRDR amino acid substitutions)

SMILES	MIC [1] [µg/mL]	MIC [2] [µg/mL]	MIC [3] [µg/mL]	MIC [4] [µg/mL]	MIC [5] [µg/mL]	MIC (Staphylococcus aureus, Organism A: Staphylococcus aureus OC4172) [µg/mL]	MIC (Streptococcus pneumoniae, ATCC49619, Organism E: Streptococcus pneumoniae ATCC 49619) [µg/mL]
CNC/C(Cl)=C1/CCCN(c2cc3c(cc2F)c(=O)c(C(=O)O)cn3C2CC2)C1.Cl [Compound 428, (E)-7-[3-(1-Chloro-2-methylamino-ethylidene)-piperidin-1-yl]-1-cyclopropyl-6-fluoro-4-oxo-1,4-dihydroquinoline-3-carboxylic Acid Hydrochloride Salt]	0.25	1	> 16	> 16	> 16	–	–
CNCC(F)=C1CN(c2cc3c(cc2F)c(=O)c(C(=O)O)cn3C2CC2)C1.O=C(O)C(F)(F)F [Compound 430, 1-Cyclopropyl-6-fluoro-7-[3-(1-fluoro-2-methylamino-ethylidene)-azetidin-1-yl]-4-oxo-1,4-dihydro-quinoline-3-carboxylic acid trifluoroacetic acid salt]	0.12	0.5	8	2	4	–	–
CNCC(Cl)=C1CN(c2cc3c(cc2F)c(=O)c(C(=O)O)cn3C2CC2)C1 [Compound 431, 7-[3-(1-Chloro-2-methylamino-ethylidene)-azetidin-1-yl]-1-cyclopropyl-6-fluoro-4-oxo-1,4-dihydro-quinoline-3-carboxylic acid trifluoroacetic acid salt]	–	–	4	1	2	0.06	0.25
COc1c(N2CCC(=C(C#N)CN)CC2)c(F)cc2c(=O)c(C(=O)O)cn(C3CC3)c12 [Compound 433, 7-[4-(2-Amino-1-cyano-ethylidene)-piperidin-1-yl]-1-cyclopropyl-6-fluoro-8-methoxy-4-oxo-1,4-dihydro-quinoline-3-carboxylic Acid]	≤ 0.015	0.12 (≈ 0.281 µM)	–	0.5 (≈ 1.17 µM)	0.5 (≈ 1.17 µM)	–	–
C[C@H]1COc2c(N3CCC(=C(C#N)CN)CC3)c(F)cc3c(=O)c(C(=O)O)cn1c23 [Compound 435, 9-[4-(2-Amino-1-cyano-ethylidene)-piperidin-1-yl]-8-fluoro-(3S)-3-methyl-6-oxo-2,3-dihydro-6H-1-oxa-3a-aza-phenalene-5-carboxylic Acid]	0.12 (≈ 0.291 µM)	0.5 (≈ 1.21 µM)	–	4 (≈ 9.7 µM)	8 (≈ 19.4 µM)	–	–
N#CC(CN)=C1CCN(c2c(F)cc3c(=O)c(C(=O)O)cn(C4CC4)c3c2OC(F)F)CC1 [Compound 437, 7-[4-(2-Amino-1-cyano-ethylidene)-piperidin-1-yl]-1-cyclopropyl-6-fluoro-8-difluoromethoxy-4-oxo-1,4-dihydro-quinoline-3-carboxylic Acid]	0.06 (≈ 0.13 µM)	0.12 (≈ 0.259 µM)	–	1 (≈ 2.16 µM)	0.25 (≈ 0.541 µM)	–	–
COc1c(N2CCC(=C(C#N)CN)CC2)c(F)cc2c(=O)c(C(=O)O)cn([C@@H]3C[C@@H]3F)c12 [Compound 439, 7-[4-(2-Amino-1-cyano-ethylidene)-piperidin-1-yl]-6-fluoro-(1R,2S)-1-(2-fluoro-cyclopropyl)-8-methoxy-4-oxo-1,4-dihydro-quinoline-3-carboxylic Acid]	0.06 (≈ 0.135 µM)	0.25 (≈ 0.563 µM)	–	2 (≈ 4.5 µM)	2 (≈ 4.5 µM)	–	–
N#C/C(CN)=C1\CCCN(c2nc3c(cc2F)c(=O)c(C(=O)O)cn3C2CC2)C1 [Compound 441, (E)-7-[3-(2-Amino-1-cyano-ethylidene)-piperidin-1-yl]-1-cyclopropyl-6-fluoro-4-oxo-1,4-dihydro-[1,8]naphthyridine-3-carboxylic Acid]	0.5 (≈ 1.26 µM)	8 (≈ 20.1 µM)	8 (≈ 20.1 µM)	> 16	> 16	–	–
N#C/C(CN)=C1/CCCN(c2nc3c(cc2F)c(=O)c(C(=O)O)cn3C2CC2)C1 [Compound 443, (Z)-7-[3-(2-Amino-1-cyano-ethylidene)-piperidin-1-yl]-1-cyclopropyl-6-fluoro-4-oxo-1,4-dihydro-[1,8]naphthyridine-3-carboxylic Acid]	0.5 (≈ 1.26 µM)	8 (≈ 20.1 µM)	8 (≈ 20.1 µM)	> 16	> 16	–	–
COc1c(N2CCC(=C(Cl)CNC(=O)CN)CC2)c(F)cc2c(=O)c(C(=O)O)cn(C3CC3)c12.O=C(O)C(F)(F)F [Compound 445, 7-{4-[2-(2-Amino-acetylamino)-1-chloro-ethylidene]-piperidin-1-yl}-1-cyclopropyl-6-fluoro-8-methoxy-4-oxo-1,4-dihydro-quinoline-3-carboxylic Acid Trifluoroacetate Salt]	0.12	1	16	> 16	> 16	–	–
COc1c(N2CCC/C(=C(/Cl)CN)C2)c(F)cc2c(=O)c(C(=O)O)cn(C3CC3)c12 [Compound 446, (Z)-7-[3-(2-Amino-1-chloro-ethylidene)-piperidin-1-yl]-1-cyclopropyl-6-fluoro-8-methoxy-4-oxo-1,4-dihydro-quinoline-3-carboxylic acid]	0.25 (≈ 0.574 µM)	1 (≈ 2.29 µM)	–	4 (≈ 9.18 µM)	4 (≈ 9.18 µM)	–	–
NC/C(Cl)=C1\CCCN(c2c(F)cc3c(=O)c(C(=O)O)cn(C4CC4)c3c2OC(F)F)C1 [Compound 447, (Z)-7-[3-(2-Amino-1-chloro-ethylidene)-piperidin-1-yl]-1-cyclopropyl-8-difluoromethoxy-6-fluoro-4-oxo-1,4-dihydro-quinoline-3-carboxylic acid]	0.25 (≈ 0.53 µM)	1 (≈ 2.12 µM)	–	16 (≈ 33.9 µM)	1 (≈ 2.12 µM)	–	–
C[C@H]1COc2c(N3CCC/C(=C(/Cl)CN)C3)c(F)cc3c(=O)c(C(=O)O)cn1c23 [Compound 448, (Z)-9-[3-(2-Amino-1-chloro-ethylidene)-piperidin-1-yl]-8-fluoro-(3S)-3-methyl-6-oxo-2,3-dihydro-6H-1-oxa-3a-aza-phenalene-5-carboxylic acid]	0.25 (≈ 0.593 µM)	2 (≈ 4.74 µM)	–	8 (≈ 19 µM)	16 (≈ 37.9 µM)	–	–
COc1c(N2CCC/C(=C(/Cl)CN)C2)c(F)cc2c(=O)c(C(=O)O)cn([C@@H]3C[C@@H]3F)c12 [Compound 449, (Z)-7-[3-(2-Amino-1-chloro-ethylidene)-piperidin-1-yl]-6-fluoro-(1R,2S)-1-(2-fluoro-cyclopropyl)-8-methoxy-4-oxo-1,4-dihydro-quinoline-3-carboxylic acid]	0.25 (≈ 0.551 µM)	2 (≈ 4.41 µM)	–	> 16	16 (≈ 35.3 µM)	–	–
NC/C(Cl)=C1\CCCN(c2c(F)cc3c(=O)c(C(=O)O)cn(-c4nc(N)c(F)cc4F)c3c2Cl)C1 [Compound 450, (Z)-7-[3-(2-Amino-1-chloro-ethylidene)-piperidin-1-yl]-1-(6-amino-3,5-difluoro-pyridin-2-yl)-8-chloro-6-fluoro-4-oxo-1,4-dihydro-quinoline-3-carboxylic acid]	0.12 (≈ 0.227 µM)	0.5 (≈ 0.946 µM)	–	8 (≈ 15.1 µM)	8 (≈ 15.1 µM)	–	–
Cc1c(F)c(N2CCC/C(=C\CN)C2)cc2c1c(=O)c(C(=O)O)cn2C1CC1 [Compound 451, (E)-7-[3-(2-Amino-ethylidene)-piperidin-1-yl]-1-cyclopropyl-6-fluoro-5-methyl-4-oxo-1,4-dihydro-quinoline-3-carboxylic acid]	0.25 (≈ 0.649 µM)	1 (≈ 2.59 µM)	–	16 (≈ 41.5 µM)	1 (≈ 2.59 µM)	–	–
Cc1c(F)c(N2CCC/C(=C(/Cl)CN)C2)cc2c1c(=O)c(C(=O)O)cn2C1CC1 [Compound 452, (Z)-7-[3-(2-Amino-1-chloro-ethylidene)-piperidin-1-yl]-1-cyclopropyl-6-fluoro-5-methyl-4-oxo-1,4-dihydro-quinoline-3-carboxylic acid]	0.5 (≈ 1.19 µM)	4 (≈ 9.53 µM)	–	4 (≈ 9.53 µM)	> 16	–	–
CNC/C(F)=C1/CCCN(c2c(F)cc3c(=O)c(C(=O)O)cn(C4CC4)c3c2OC)C1.Cl [Compound 453, (E)-1-Cyclopropyl-6-fluoro-7-[3-(1-fluoro-2-methylamino-ethylidene)-piperidin-1-yl]-8-methoxy-4-oxo-1,4-dihydro-quinoline-3-carboxylic Acid Hydrochloride Salt]	0.06	0.25	–	4	2	–	–
COc1c(N2CCC(=C(Cl)CN)CC2)c(F)c(C)c2c(=O)c(C(=O)O)cn(C3CC3)c12 [Compound 455, 7-[4-(2-Amino-1-chloro-ethylidene)-piperidin-1-yl]-1-cyclopropyl-6-fluoro-8-methoxy-5-methyl-4-oxo-1,4-dihydro-quinoline-3-carboxylic Acid]	≤ 0.015	0.25 (≈ 0.556 µM)	0.12 (≈ 0.267 µM)	2 (≈ 4.45 µM)	1 (≈ 2.22 µM)	–	–
NC/C(F)=C1/CCCN(c2c(F)c(N)c3c(=O)c(C(=O)O)cn(C4CC4)c3c2F)C1 [Compound 456, 5-Amino-7-[(E)-3-(2-amino-1-fluoro-ethylidene)-piperidin-1-yl]-1-cyclopropyl-6,8-difluoro-4-oxo-1,4-dihydro-quinoline-3-carboxylic Acid]	≤ 0.015	0.03 (≈ 0.071 µM)	0.06 (≈ 0.142 µM)	0.12 (≈ 0.284 µM)	0.12 (≈ 0.284 µM)	–	–
NC/C(F)=C1/CCCN(c2c(F)cc3c(=O)c(C(=O)O)cn(C4CC4)c3c2OCF)C1 [Compound 457, 7-[(E)-3-(2-Amino-1-fluoro-ethylidene)-piperidin-1-yl]-1-cyclopropyl-6-fluoro-8-fluoromethoxy-4-oxo-1,4-dihydro-quinoline-3-carboxylic Acid]	0.25 (≈ 0.572 µM)	1 (≈ 2.29 µM)	2 (≈ 4.57 µM)	8 (≈ 18.3 µM)	4 (≈ 9.14 µM)	–	–
COc1c(N2CCC/C(=C(\F)CN)C2)c(F)c(C)c2c(=O)c(C(=O)O)cn(C3CC3)c12 [Compound 458, 7-[(E)-3-(2-Amino-1-fluoro-ethylidene)-piperidin-1-yl]-1-cyclopropyl-6-fluoro-8-methoxy-5-methyl-4-oxo-1,4-dihydro-quinoline-3-carboxylic Acid]	≤ 0.015	0.06 (≈ 0.138 µM)	0.03 (≈ 0.0692 µM)	0.25 (≈ 0.577 µM)	0.25 (≈ 0.577 µM)	–	–
